Broadly, the Kd is the free concentration of one partner at which half of the binding sites on the other are occupied at equilibrium, for simple one-to-one binding. The term IC50 denotes the concentration needed to halve the response being measured. Low readings indicate greater potency in that assay, high ones weaker potency in that assay.

A value given as a limit tells only on which side of the number the result lay.

T1 sequence (P42336 whole entry H1047R): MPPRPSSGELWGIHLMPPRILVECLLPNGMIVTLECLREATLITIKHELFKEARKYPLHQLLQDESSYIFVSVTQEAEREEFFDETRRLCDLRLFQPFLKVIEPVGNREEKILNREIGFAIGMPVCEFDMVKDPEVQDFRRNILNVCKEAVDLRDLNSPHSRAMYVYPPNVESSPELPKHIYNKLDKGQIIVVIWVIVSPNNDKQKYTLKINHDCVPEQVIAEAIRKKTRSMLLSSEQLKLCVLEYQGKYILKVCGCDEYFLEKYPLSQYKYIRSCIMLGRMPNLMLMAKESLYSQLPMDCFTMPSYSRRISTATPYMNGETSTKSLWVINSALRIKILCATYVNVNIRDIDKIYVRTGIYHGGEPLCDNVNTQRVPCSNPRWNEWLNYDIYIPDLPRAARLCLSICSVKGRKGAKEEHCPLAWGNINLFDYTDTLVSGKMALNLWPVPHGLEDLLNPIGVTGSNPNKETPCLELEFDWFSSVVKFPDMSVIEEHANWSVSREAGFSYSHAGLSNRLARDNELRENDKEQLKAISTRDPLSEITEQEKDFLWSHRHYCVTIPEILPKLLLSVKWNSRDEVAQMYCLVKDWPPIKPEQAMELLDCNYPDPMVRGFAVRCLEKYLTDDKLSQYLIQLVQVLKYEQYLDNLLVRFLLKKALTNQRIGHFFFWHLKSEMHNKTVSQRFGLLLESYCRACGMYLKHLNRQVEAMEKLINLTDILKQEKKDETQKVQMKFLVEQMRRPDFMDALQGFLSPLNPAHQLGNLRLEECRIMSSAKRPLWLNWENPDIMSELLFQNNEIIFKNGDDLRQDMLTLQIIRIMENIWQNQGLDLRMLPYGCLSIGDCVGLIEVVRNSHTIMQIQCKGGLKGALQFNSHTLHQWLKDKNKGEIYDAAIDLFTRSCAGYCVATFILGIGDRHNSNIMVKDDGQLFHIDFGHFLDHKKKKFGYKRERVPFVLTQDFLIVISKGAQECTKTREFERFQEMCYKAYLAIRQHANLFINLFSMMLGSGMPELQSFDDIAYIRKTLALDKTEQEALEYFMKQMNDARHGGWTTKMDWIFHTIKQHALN
T1 sequence (P27986 322-694 partner limits assumed): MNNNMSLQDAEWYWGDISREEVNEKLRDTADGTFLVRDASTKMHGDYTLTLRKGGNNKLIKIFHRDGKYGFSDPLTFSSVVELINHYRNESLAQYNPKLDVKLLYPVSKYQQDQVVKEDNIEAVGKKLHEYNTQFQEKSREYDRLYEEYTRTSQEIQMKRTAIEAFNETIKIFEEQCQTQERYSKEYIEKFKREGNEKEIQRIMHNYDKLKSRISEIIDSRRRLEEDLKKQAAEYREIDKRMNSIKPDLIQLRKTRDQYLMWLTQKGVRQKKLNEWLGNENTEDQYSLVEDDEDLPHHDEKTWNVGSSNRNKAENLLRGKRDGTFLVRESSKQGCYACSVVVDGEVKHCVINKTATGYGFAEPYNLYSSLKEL

The first test has as its target T1, PI3Kα H1047R (Homo sapiens, UniProt P42336, H1047R).
T1 construct: The protein contained a full-length p110-a subunit harboring the H1047R mutation with an N-terminal AviTag
Kind of test: Surface Plasmon Resonance (SPR) binding, wortmannin-blocked protein. The conditions noted are these: Biacore 8K, protein pre-incubated with 1 μM wortmannin, 25° C. As to the method:
SPR experiments were performed on a Biacore 8K instrument. A biotinylated recombinant PI3Kα H1047R protein was used in this study. The protein contained a full-length p110-a subunit harboring the H1047R mutation with an N-terminal AviTag, complexed with a truncated p85-a subunit (amino acid residues 322-694). The protein was first incubated with 1 μM wortmannin for 30 min at RT to covalently block the ATP binding site, then immobilized onto a streptavidin sensor chip by flowing the protein through the sensor chip at typically 20 μg/mL concentration and 2 μL/min flow rate for 1200 seconds. Compound binding affinities were measured in the multi-cycle kinetics mode, at 90 μL/min flow rate with 90 seconds association time and 240 seconds dissociation time. The running buffer contained 50 mM Tris, pH 7.5, 150 mM NaCl, 0.01% Brij35, 1 mM DTT, 1 mM MgCl2, 0.05% Tween-20 and 2% DMSO. Temperature was maintained at 25° C. during experiments.
On the technique in general: Surface plasmon resonance follows binding to a sensor surface in real time, without labels.
Turning to `Cc1c([C@@H](NC(=O)N[C@H]2CC[C@H](C(N)=O)CC2)C(C)C)oc2ccc(F)cc12` (relative stereo) [Compound 42, (1R,4r)-4-(3-((R*)-1-(5-fluoro-3-methylbenzofuran-2-yl)-2-methylpropyl)ureido)cyclohexane-1-carboxamide], the dissociation constant Kd is ≥ 0.5 µM.

The subject of a further test is pAKT (S473) in T47D cells (PI3Kα H1047R mutation). Description: HTRF pAKT (S473) in T47D cells. The class given is cell-based. Particulars: Homo sapiens, T47D, 1 h.
For `Cc1c([C@H](NC(=O)Nc2cnc(NCC(C)(C)O)nc2)C(F)(F)F)oc2c(F)cc(F)cc12` [Compound 184], the 50% inhibitory concentration (IC50) is > 5 µM. Still for that read-out and setting: then `Cc1c([C@@H](NC(=O)Nc2cccc(N3CCC3=O)c2)C(C)C)oc2ccc(F)cc12` [Compound 104], with < 1 µM; and `Cc1c([C@H](NC(=O)Nc2cnc(N3C[C@H](O)[C@H]3C)nc2)C(F)(F)F)oc2c(F)cc(F)cc12` [Compound 173], with > 5 µM. As to `Cc1c([C@@H](NC(=O)Nc2cnc(N3C[C@H](O)[C@H]3C)nc2)C(F)(F)F)oc2c(F)cc(F)cc12` [Compound 174], the IC50 is < 1 µM.

As to `Cc1c([C@@H](NC(=O)Nc2cnc(NCC(C)(C)O)nc2)C(F)(F)F)oc2c(F)cc(F)cc12` [Compound 183], the half-inhibitory concentration (IC50) is < 1 µM.

Staying with this test, now noted: timepoint 1 hour.
With `Cc1c([C@H](NC(=O)Nc2cnc(N3CC[C@@H](O)C3)nc2)C(F)(F)F)oc2c(F)cc(F)cc12` [Compound 207], the half-maximal inhibitory concentration (IC50) is > 5 µM. On to `Cc1c([C@@H](NC(=O)Nc2cnc(N3CC[C@@H](O)C3)nc2)C(F)(F)F)oc2c(F)cc(F)cc12` [Compound 208], for which the IC50 was < 1 µM. As to `Cc1c(C(NC(=O)Nc2ccc(N)nc2)C(F)(F)F)oc2c(F)cc(F)cc12` (centres unmarked) [Compound 181], the half-maximal inhibitory concentration (IC50) is > 5 µM.

As for `Cc1c([C@H](NC(=O)Nc2cnc(N3CC(C(C)(C)O)C3)nc2)C(F)(F)F)oc2c(F)cc(F)cc12` [Compound 206], the half-maximal inhibitory concentration (IC50) was > 5 µM.

`Cc1c(C(NC(=O)Nc2ccc(N)nc2)C(F)(F)F)oc2c(F)cc(F)cc12` (centres unmarked) [Compound 182]: the half-inhibitory concentration (IC50) is < 1 µM. On to `Cc1c([C@@H](NC(=O)Nc2cnc(NC[C@@H](C)O)nc2)C(C)C)oc2ccc(F)cc12` [Compound 143], for which the half-maximal inhibitory concentration (IC50) is < 1 µM. On the same count and under the same terms, the same measure for `Cc1c([C@@H](NC(=O)Nc2cnc(N3CC(C(N)=O)C3)nc2)C(F)(F)F)oc2c(F)cc(F)cc12` [Compound 211]: < 1 µM.

For `Cc1c([C@H](NC(=O)Nc2cnc(N3CC(C(N)=O)C3)nc2)C(F)(F)F)oc2c(F)cc(F)cc12` [Compound 212], the concentration for half-maximal inhibition (IC50) was > 5 µM.

For `Cc1c([C@@H](NC(=O)Nc2cnc(N3CC(C(C)(C)O)C3)nc2)C(F)(F)F)oc2c(F)cc(F)cc12` [Compound 205], the IC50 was < 1 µM. The same measure, in the same setting: then `Cc1c([C@H](NC(=O)Nc2cnc(N3CC[C@H](O)C3)nc2)C(F)(F)F)oc2c(F)cc(F)cc12` [Compound 210], with > 5 µM. On the same count and under the same terms, then `Cc1c([C@@H](NC(=O)Nc2cnc(N3CC[C@H](O)C3)nc2)C(F)(F)F)oc2c(F)cc(F)cc12` [Compound 209], with < 1 µM.
